Legend:
Firefly Luciferase [1] = biological target: T1, Firefly Luciferase (Photinus pyralis, UniProt P08659, K549A/L550V/N119G/N50D/S548I); assay: biochemical; assay type: biochemical
T1 construct: host or cells: Chinese hamster ovary (CHO) cells, transient transfection, cleared lysate

Renilla Luciferase [2] = biological target: T2, Renilla Luciferase (Renilla reniformis, UniProt P27652); assay: Quenching of the luminescent reaction of Renilla luciferase by RLQ reagents (Table 3); assay type: biochemical
T2 sequence (P27652 1-311): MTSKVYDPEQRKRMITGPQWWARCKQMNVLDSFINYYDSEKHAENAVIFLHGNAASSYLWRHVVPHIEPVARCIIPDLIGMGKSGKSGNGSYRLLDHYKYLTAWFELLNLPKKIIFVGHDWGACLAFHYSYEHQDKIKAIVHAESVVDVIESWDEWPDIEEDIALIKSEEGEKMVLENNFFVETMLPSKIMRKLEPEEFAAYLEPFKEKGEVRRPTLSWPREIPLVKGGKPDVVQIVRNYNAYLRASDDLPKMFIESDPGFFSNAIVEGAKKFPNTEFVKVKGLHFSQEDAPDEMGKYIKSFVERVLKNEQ
Description: Numerous chemical compounds were tested individually and in combination for their ability to rapidly quench luciferase catalyzed luminescent reactions. Table 1 and Table 3 present the potency of quenching firefly and Renilla luciferases, respectively, for representative concentrations of the compounds tested. The percentage of residual luminescent signal measured after addition of the test compound is indicative of its quenching efficiency. Whether used individually or in combination at varying concentrations, useful quench formulations should be capable of reducing luminescence from the luciferase reactions by 1,000-fold, i.e., to 0.1% of the starting luminescent emission.
Renilla luciferase reactions were performed by adding 100 μl of purified Renilla luciferase (typically diluted to 0.3 μg per ml in 75 mM HEPES, 0.02% BSA; pH 8) to a luminometer tube containing an equal volume of Renilla substrate solution (7.5 mM sodium acetate, 10 mM CDTA, 400 mM sodium sulfate, 25 μM APMBT, 15 mM sodium pyrophosphate, 2 μM coelenterazine; pH 5.5). Photon emission was quantified as previously described. The individual and combined chemical formulations summarized in Table 3 were evaluated for their ability to quench Renilla luciferase luminescence by adding 100 μl of the test solution to the luminescent reaction, then quantifying residual light emission as before.

Renilla Luciferase [3] = biological target: T2, Renilla Luciferase; assay: Compatibility of BLA and BLQ reagent chemicals with the luminescent reaction of Renilla luciferase (Table 4); assay type: biochemical
Description: Implicit to the concept of an integrated (i.e., sequential-measurement) dual-enzyme reporter assay is the necessity to efficiently quench luminescence from the first reporter enzyme such that the activity of the second luminescent reporter is not inhibited. Therefore a quench reagent is required that is extremely potent in quenching luminescence from the firefly reaction but can exist as a passive component in the subsequent luminesces reaction catalyzed by Renilla luciferase. Selected chemical components of Beetle Luciferase Activation (BLA) Reagent, and chemicals identified in Table 1 as candidate Beetle Luciferase Quench (BLQ) Reagents, were further evaluated to assess any inhibitory interaction they may have with the luminescent reaction catalyzed by Renilla luciferase. Table 4 summarizes the affect of these selected chemicals on the luminescent activity of Renilla luciferase. Because of its potent inhibitory affect on the firefly reaction, sodium pyrophosphate (Na4 PPi) was tested first. 100 μl Mathews' Buffer supplemented with 2 μM benzyl-coelenterazine and 15 mM Na4 PPi was dispensed into a luminometer tube containing approximately 3 ng of purified Renilla luciferase in 100 μl Mathews' Buffer, and luminescence was quantified. […]

Firefly Luciferase [4] = biological target: T1, Firefly Luciferase; assay: biochemical; conditions: read-out: Percent (%) Residual Firefly Luciferase Activity
Description: Assays were performed using a cell extract prepared from CHO cells expressing firefly luciferase (described in detail below) and further supplemented with purified Renilla luciferase (approximately 0.3 μg/ml). Thus, the prepared extract simulates the experimental condition in which a single cell population is induced to simultaneously express two distinct luciferase reporter enzymes. Reactions to determine Renilla luciferase activity were conducted by first dispensing 10 μl of extract into a luminometer tube containing 100 μl BLA Reagent (75 mM HEPES, 4 mM MgSO4, 20 mM DTT, 100 μM EDTA, 530 μM ATP, 270 μM CoA, 470 μM beetle luciferin: pH 8.0), then adding 100 μl of one of the various BLQRLA test reagents. The 100% control value for Reporter #1, the firefly luciferase-mediated luminescent reaction, was determined by quantifying light emission from said reaction prior to addition of the designated BLQRLA Reagent. The 100% control value for Reporter #2, the Renilla luciferase-mediated luminescent reaction, was determined using the dual-reporter assay format in which
control BLQRLA Reagent (7.5 mM acetic acid, 15 mM Na4 PPi, 400 mM Na2 SO4, 2 μM coelenterazine; pH 5.0) was added to the firefly luciferase reaction in a 1:1 volume ratio.

[5] = assay concentration 0.33% (v/v)
[6] = read-out: Percent (%) Residual Firefly Luciferase Activity

T1 sequence (P08659 whole entry N50D/N119G/S548I/K549A/L550V): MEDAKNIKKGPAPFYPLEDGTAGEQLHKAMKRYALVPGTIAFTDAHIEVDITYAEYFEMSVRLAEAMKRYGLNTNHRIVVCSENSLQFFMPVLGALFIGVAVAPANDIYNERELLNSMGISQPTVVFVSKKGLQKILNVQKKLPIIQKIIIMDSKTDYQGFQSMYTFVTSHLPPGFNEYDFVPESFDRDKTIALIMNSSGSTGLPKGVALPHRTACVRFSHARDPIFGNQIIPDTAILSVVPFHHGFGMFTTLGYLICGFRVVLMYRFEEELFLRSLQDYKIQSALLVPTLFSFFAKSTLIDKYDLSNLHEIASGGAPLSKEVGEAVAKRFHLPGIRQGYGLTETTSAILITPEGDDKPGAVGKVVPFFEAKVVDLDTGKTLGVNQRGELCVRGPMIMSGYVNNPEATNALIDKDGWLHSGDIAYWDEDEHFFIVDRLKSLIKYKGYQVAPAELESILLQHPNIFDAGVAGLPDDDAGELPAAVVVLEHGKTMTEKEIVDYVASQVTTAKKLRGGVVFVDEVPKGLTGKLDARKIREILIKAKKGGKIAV

With `O=P([O-])([O-])O.[K+].[K+]` [K2 HPO4] the “Percent (%) Residual Firefly Luciferase Activity” value (Firefly Luciferase [1]; assay concentration 190 mM) was 8.3%.
With `[I-].[Na+]` [NaI, sodium iodide] the “Percent (%) Residual Firefly Luciferase Activity” value (Firefly Luciferase [1]; assay concentration 400 mM) was 0.078% and the “Percent (%) Residual Renilla Luciferase Activity” value (Renilla Luciferase [2]; assay concentration 330 mM) was 5.9%.
With Tween ®20 the “Percent (%) Residual Renilla Luciferase Activity” value (Renilla Luciferase [2]; [5]) was 3.4%.
In the case of `Cc1ccc2nc(-c3ccc(N)cc3)sc2c1` [APMBT, 2-(4-aminophenyl)-6-methylbenzothiazole], the remaining activity at 7.6 µM (Firefly Luciferase [1]; [6]) is reported as 0.33%.
In the case of `O=S(=O)([O-])[O-].[Na+].[Na+]` [Na2 SO4, sodium sulfate], the “Percent (%) Residual Firefly Luciferase Activity” value (Firefly Luciferase [1]; assay concentration 400 mM) is reported as 10%.
In the case of `O=C(O)CN(CC(=O)O)[C@@H]1CCCC[C@H]1N(CC(=O)O)CC(=O)O` (relative stereo) [CDTA, trans-1,2,-Diaminocyclohexane-N,N,N',N'-tetraacetic acid], the remaining activity at 15400 µM (Firefly Luciferase [1]; [6]) is reported as 0.1%.
`Oc1ccccc1-c1nc2ccccc2s1` [HPBT, 2(O-Hydroxyphenyl)benzothiazole] was tested, and the remaining activity at 30 µM (Firefly Luciferase [1]; [6]) was 44%.
Triton ® X-100 was tested, and the “Percent (%) Residual Renilla Luciferase Activity” value (Renilla Luciferase [2]; [5]) was 3.1%.
Compound `c1ccc2scnc2c1` [BT, Benzothiazole] has a remaining activity at 3000 µM (Firefly Luciferase [1]; [6]) of 2.3%.
`Nc1ncnc2c1ncn2[C@@H](CO)O[C@@H](CO)COP(=O)(O)OP(=O)(O)OP(=O)(O)O` [or-ATP, Adenosine 5'-Triphosphate 2',3'-acyclic dialcohol, Periodate Oxidized, Borohydride Reduced] was tested, and the remaining activity at 7600 µM (Firefly Luciferase [1]; [6]) was 0.78%.
With `O=[N+]([O-])[O-].[Na+]` [NaNO3] the “Percent (%) Residual Firefly Luciferase Activity” value (Firefly Luciferase [1]; assay concentration 400 mM) was 2.1%.
In the case of `O=P([O-])([O-])OP(=O)([O-])[O-].[Na+].[Na+].[Na+].[Na+]` [Na4 PPi, Tetrasodium Pyrophosphate], the “inhibitory effect on the luminescent reaction catalyzed by Renilla luciferase” value (Renilla Luciferase [3]; Mathews' Buffer with 15 mM Na4 PPi added 1:1, compared to control lacking sodium pyrophosphate) is reported as “no inhibitory affect”, the activity at 7500 µM (Renilla Luciferase [3]; assay concentration 7.5 mM, control = 100%, read-out: Percent (%) Renilla Luciferase Activity) is reported as 102% and the remaining activity at 7500 µM (Firefly Luciferase [4]) is reported as 1%. It also gave a remaining activity at 31000 µM (Firefly Luciferase [1]; [6]) of 0.12%.
`CCCCCCCCCCCCOS(=O)(=O)[O-].[Na+]` [SDS, Sodium Dodecyl Sulfate] was tested, and the remaining activity at 0.3 % (Firefly Luciferase [1]; [6]) was 0.079% and the remaining activity at 0.33 % (Renilla Luciferase [2]; assay concentration 0.33% (w/v), read-out: Percent (%) Residual Renilla Luciferase Activity) was 0.00029%.
Work on `O=C(O)CN(CCN(CC(=O)O)CC(=O)O)CC(=O)O` [EDTA, Ethylenediaminetetraacetic acid] yielded a remaining activity at 22700 µM (Firefly Luciferase [1]; [6]) of 0.13%.
In the case of `CCCCO` [n-Butanol, n-butanol], the remaining activity at 1.67 % (Renilla Luciferase [2]; assay concentration 1.67% (v/v), read-out: Percent (%) Residual Renilla Luciferase Activity) is reported as 4.5%.
With `c1ccc(-c2nc3ccccc3s2)cc1` [PBT, 2-Phenylbenzothiazole] the remaining activity at 150 µM (Firefly Luciferase [1]; assay concentration 0.15 mM, read-out: Percent (%) Residual Firefly Luciferase Activity) was 7.5%.
For `O=C(O)CC(O)(CC(=O)O)C(=O)O` [Citric Acid, pH 3, citric acid], the remaining activity at 6670 µM (Renilla Luciferase [2]; assay concentration 6.67 mM, read-out: Percent (%) Residual Renilla Luciferase Activity) was 5.3%.
Compound `CCCCCCCCCCP(C)(C)=O` [APO-10, Dimethyldecylphosphine Oxide] has a remaining activity at 1 % (Firefly Luciferase [1]; [6]) of 1.9%.
`CC(C)O` [iso-Propanol, iso-propanol] gave a remaining activity at 14.4 % (Firefly Luciferase [1]; [6]) of 2.3%.
With `[Cl-].[Na+]` [NaCl] the “Percent (%) Residual Firefly Luciferase Activity” value (Firefly Luciferase [1]; assay concentration 400 mM) was 8.3%.
With `O=C(O)c1csc(-c2nc3ccc(O)cc3s2)n1` [Dehydroluciferin, 2-(6'-Hydroxy-2'-benzothiazolyl)-thiazole-4-carboxylic acid] the “Percent (%) Residual Firefly Luciferase Activity” value (Firefly Luciferase [1]; assay concentration: Saturating) was 0.064%.

— patent US5744320A (priority 1995, dated 1998)
